Data as given in the supplement of paper PMC6045584.
± gives the standard deviation of the averaged measurements.

Key:
[1] = compound: CC(=O)NCC(=O)N1[C@@H]2CC[C@H]1c1ccc(Nc3ncc(C(F)(F)F)c(NC4CCC4)n3)cc12; assay: surviving fraction relative to DMSO-only wells; higher = less growth inhibition; conditions: exposure time: 5 days
Method in brief: (§1)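 Each tumour cell line was screened three times, and only lines with replicate Pearson r >0.7 and median Z' >0.3 were kept. Cells in log phase were seeded at 250–500 per well in 384-well plates, left 24 hours, then exposed continuously for five days to inhibitors at 0.5, 1, 5, 10, 50, 100, 500 and 1000 nM. Viability was read as CellTiter-Glo luminescence, with surviving fraction normalised to the median of DMSO-only wells.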

CARBOPLATIN = compound: O=C(O)C1(C(=O)O)CCC1.[NH2-].[NH2-].[Pt+2] [CARBOPLATIN]; assay: as above; conditions: exposure time: 5 days
Method in brief: as §1

| Test System | surviving fraction ([1]; 0.5 nM) | surviving fraction ([1]; 1 nM) | surviving fraction ([1]; 5 nM) | surviving fraction ([1]; 10 nM) | surviving fraction ([1]; 50 nM) | surviving fraction ([1]; 100 nM) | surviving fraction ([1]; 500 nM) | surviving fraction ([1]; 1000 nM) | surviving fraction (CARBOPLATIN; 0.5 nM) | surviving fraction (CARBOPLATIN; 1 nM) | surviving fraction (CARBOPLATIN; 5 nM) | surviving fraction (CARBOPLATIN; 10 nM) | surviving fraction (CARBOPLATIN; 50 nM) | surviving fraction (CARBOPLATIN; 100 nM) | surviving fraction (CARBOPLATIN; 500 nM) | surviving fraction (CARBOPLATIN; 1000 nM) |
| --- | --- | --- | --- | --- | --- | --- | --- | --- | --- | --- | --- | --- | --- | --- | --- | --- |
| COLO320DM LARGE INTESTINE | 1.1 ± 0.058 | 1.09 ± 0.077 | 0.979 ± 0.086 | 0.954 ± 0.035 | 0.573 ± 0.087 | 0.559 ± 0.02 | 0.283 ± 0.0029 | 0.237 ± 0.015 | 1.12 ± 0.013 | 1.14 ± 0.021 | 1.1 ± 0.045 | 1.06 ± 0.059 | 1.2 ± 0.057 | 1.2 ± 0.15 | 1.15 ± 0.094 | 1.14 ± 0.1 |
| SG43 HEADNECK | 1.01 ± 0.065 | 1.18 ± 0.26 | 0.8 ± 0.25 | 0.923 ± 0.17 | 0.703 ± 0.22 | 0.682 ± 0.093 | 0.579 ± 0.039 | 0.569 ± 0.069 | 1.14 ± 0.14 | 1.13 ± 0.3 | 0.915 ± 0.18 | 1.15 ± 0.23 | 0.826 ± 0.071 | 0.996 ± 0.19 | 0.994 ± 0.16 | 1.07 ± 0.14 |
| H23 LUNG | 0.971 ± 0.037 | 0.95 ± 0.015 | 0.936 ± 0.037 | 0.931 ± 0.029 | 0.949 ± 0.04 | 0.69 ± 0.051 | 0.471 ± 0.0074 | 0.421 ± 0.014 | 1.06 ± 0.038 | 1.08 ± 0.029 | 1.07 ± 0.013 | 1.01 ± 0.03 | 1.03 ± 0.037 | 1.15 ± 0.02 | 1.09 ± 0.046 | 1.11 ± 0.067 |
| A549 LUNG | 0.952 ± 0.013 | 0.93 ± 0.018 | 0.906 ± 0.016 | 0.911 ± 0.014 | 0.686 ± 0.024 | 0.65 ± 0.031 | 0.585 ± 0.014 | 0.445 ± 0.022 | 1.07 ± 0.023 | 1.08 ± 0.013 | 1.08 ± 0.02 | 1.03 ± 0.019 | 1.1 ± 0.011 | 1.06 ± 0.019 | 1.07 ± 0.032 | 1.09 ± 0.012 |
| JIMT1 BREAST | 0.996 ± 0.044 | 1.01 ± 0.032 | 1 ± 0.036 | 0.97 ± 0.02 | 1.03 ± 0.053 | 0.763 ± 0.024 | 0.705 ± 0.0076 | 0.593 ± 0.029 | 0.97 ± 0.037 | 0.949 ± 0.027 | 0.999 ± 0.014 | 0.969 ± 0.015 | 1.09 ± 0.036 | 0.949 ± 0.06 | 1.03 ± 0.031 | 0.95 ± 0.07 |
| RDES SOFT TISSUE | 1.25 ± 0.15 | 1.26 ± 0.18 | 1.3 ± 0.047 | 1.3 ± 0.079 | 1.07 ± 0.17 | 0.245 ± 0.018 | 0.249 ± 0.025 | 0.195 ± 0.0049 | 1.23 ± 0.035 | 0.987 ± 0.091 | 1.14 ± 0.1 | 1.11 ± 0.083 | 1.09 ± 0.15 | 1.23 ± 0.13 | 1.08 ± 0.099 | 1.15 ± 0.14 |
| SCC90 HEADNECK | 0.769 ± 0.12 | 0.816 ± 0.048 | 0.936 ± 0.035 | 0.991 ± 0.089 | 0.66 ± 0.13 | 0.62 ± 0.084 | 0.665 ± 0.048 | 0.613 ± 0.017 | 1.02 ± 0.023 | 1.04 ± 0.034 | 1.12 ± 0.18 | 1.11 ± 0.034 | 1.2 ± 0.07 | 1.15 ± 0.012 | 1.14 ± 0.098 | 1.16 ± 0.12 |
| ASKA SYNOVIAL | 0.973 ± 0.052 | 0.908 ± 0.012 | 0.972 ± 0.085 | 0.912 ± 0.084 | 0.365 ± 0.018 | 0.335 ± 0.023 | 0.34 ± 0.012 | 0.386 ± 0.035 | 1.03 ± 0.06 | 1.05 ± 0.022 | 1.16 ± 0.088 | 1.17 ± 0.061 | 1.14 ± 0.073 | 1.27 ± 0.1 | 1.1 ± 0.097 | 1.09 ± 0.086 |
| C33A CERVIX | 0.77 ± 0.079 | 0.707 ± 0.032 | 0.895 ± 0.062 | 0.953 ± 0.069 | 0.665 ± 0.087 | 0.515 ± 0.03 | 0.396 ± 0.011 | 0.351 ± 0.012 | 1.14 ± 0.063 | 1.14 ± 0.085 | 1.19 ± 0.082 | 1.43 ± 0.17 | 1.21 ± 0.066 | 1.43 ± 0.13 | 1.15 ± 0.051 | 1.31 ± 0.024 |
| CASKI CERVIX | 0.928 ± 0.014 | 0.939 ± 0.042 | 0.968 ± 0.072 | 0.946 ± 0.067 | 0.771 ± 0.049 | 0.214 ± 0.018 | 0.199 ± 0.015 | 0.133 ± 0.0061 | 0.946 ± 0.064 | 0.877 ± 0.018 | 0.954 ± 0.043 | 0.93 ± 0.069 | 1.05 ± 0.025 | 1.04 ± 0.021 | 1.03 ± 0.077 | 1.03 ± 0.058 |
